Measurements from US6573293B2, “Pyrrole substituted 2-indolinone protein kinase inhibitors” (Sugen, Inc., priority 2000, dated 2003).

What was measured:
GST-Flk1 = molecular target: T1, GST-Flk1 (Mus musculus, UniProt P35918); test: GST-FLK-1 bioassay (bio flkGST); assay type: biochemical
T1 construct: GST-Flk1cd purified from sf9 recombinant baculovirus transformation; host or cells: Sf9 (baculovirus)

HER-2 kinase = molecular target: T2, HER-2 kinase (Homo sapiens, UniProt P04626); test: Cellular HER-2 kinase assay; assay type: cell-based; conditions: read-out: Her2 Kinase IC50
T2 construct: Use EGFr/HER-2 chimera/3T3-C7 cell line for this assay; It is expressed in mouse NIH 3T3 clone C7 cells; P00533 (Epidermal growth factor receptor)
T2 sequence (P04626 720-987 limits assumed): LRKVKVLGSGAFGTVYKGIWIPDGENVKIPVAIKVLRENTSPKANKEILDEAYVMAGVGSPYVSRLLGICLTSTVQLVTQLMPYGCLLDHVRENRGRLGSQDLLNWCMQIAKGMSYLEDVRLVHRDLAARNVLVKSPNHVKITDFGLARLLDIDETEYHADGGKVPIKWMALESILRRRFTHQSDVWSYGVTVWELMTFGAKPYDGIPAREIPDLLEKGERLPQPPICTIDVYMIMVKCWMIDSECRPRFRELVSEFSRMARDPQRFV

EGFR [1] = molecular target: T3, EGFR (Homo sapiens, UniProt P00533); test: cell EGF assay; assay type: cell-based
T3 construct: A431 cell lysate (SUGEN, Inc.); host or cells: A431
T3 sequence (P00533 25-1210): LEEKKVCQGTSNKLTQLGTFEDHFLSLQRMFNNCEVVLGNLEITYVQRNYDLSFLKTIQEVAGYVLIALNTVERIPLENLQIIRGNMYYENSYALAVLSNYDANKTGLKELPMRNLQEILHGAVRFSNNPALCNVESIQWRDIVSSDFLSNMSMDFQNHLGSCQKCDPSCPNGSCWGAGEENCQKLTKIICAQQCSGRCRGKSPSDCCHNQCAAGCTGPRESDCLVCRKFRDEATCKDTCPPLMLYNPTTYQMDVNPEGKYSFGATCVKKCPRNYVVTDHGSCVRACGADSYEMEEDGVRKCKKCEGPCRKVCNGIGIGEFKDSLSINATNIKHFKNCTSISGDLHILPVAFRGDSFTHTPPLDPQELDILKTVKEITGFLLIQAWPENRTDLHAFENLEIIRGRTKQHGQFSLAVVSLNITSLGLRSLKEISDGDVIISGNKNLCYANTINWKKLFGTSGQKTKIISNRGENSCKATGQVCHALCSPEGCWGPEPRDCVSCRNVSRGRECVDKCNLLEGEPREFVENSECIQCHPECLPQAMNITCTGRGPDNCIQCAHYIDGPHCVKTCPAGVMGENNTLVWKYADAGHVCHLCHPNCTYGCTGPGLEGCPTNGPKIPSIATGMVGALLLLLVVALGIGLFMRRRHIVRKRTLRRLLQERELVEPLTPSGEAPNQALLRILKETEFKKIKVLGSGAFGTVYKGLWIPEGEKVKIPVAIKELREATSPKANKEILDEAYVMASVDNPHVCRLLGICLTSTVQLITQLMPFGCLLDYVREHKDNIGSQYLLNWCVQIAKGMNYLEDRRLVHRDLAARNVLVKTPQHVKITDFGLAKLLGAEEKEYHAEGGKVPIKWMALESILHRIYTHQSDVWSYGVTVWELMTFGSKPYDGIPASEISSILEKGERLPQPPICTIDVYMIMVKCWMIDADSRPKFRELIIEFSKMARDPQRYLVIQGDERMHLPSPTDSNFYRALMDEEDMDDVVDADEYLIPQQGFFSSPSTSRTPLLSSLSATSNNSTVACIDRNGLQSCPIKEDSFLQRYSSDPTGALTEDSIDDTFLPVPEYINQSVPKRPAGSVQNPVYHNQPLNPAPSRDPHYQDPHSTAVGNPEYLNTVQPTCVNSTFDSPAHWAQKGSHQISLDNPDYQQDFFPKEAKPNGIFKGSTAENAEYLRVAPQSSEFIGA
Method: Several of the assays described herein are performed in an ELISA (Enzyme-Linked Immunosorbent Sandwich Assay) format (Voller, et al., 1980, “Enzyme-Linked Immunosorbent Assay,” Manual of Clinical Immunology, 2d ed., Rose and Friedman, Am. Soc. Of Microbiology, Washington, D.C., pp. 359-371). The general procedure is as follows: a compound is introduced to cells expressing the test kinase, either naturally or recombinantly, for a selected period of time after which, if the test kinase is a receptor, a ligand known to activate the receptor is added. The cells are lysed and the lysate is transferred to the wells of an ELISA plate previously coated with a specific antibody recognizing the substrate of the enzymatic phosphorylation reaction. Non-substrate components of the cell lysate are washed away and the amount of phosphorylation on the substrate is detected with an antibody specifically recognizing phosphotyrosine compared with control cells that were not contacted with a test compound.

EGFR [2] = molecular target: T3, EGFR; test: EGFR bioassay (bio EGF); assay type: biochemical
PDGFR-β = molecular target: T4, PDGFR-β (Homo sapiens, UniProt P09619); test: PDGFR bioassay (bio PDGF); assay type: biochemical
T4 construct: host or cells: NIH 3T3
T4 sequence (P09619 33-1106): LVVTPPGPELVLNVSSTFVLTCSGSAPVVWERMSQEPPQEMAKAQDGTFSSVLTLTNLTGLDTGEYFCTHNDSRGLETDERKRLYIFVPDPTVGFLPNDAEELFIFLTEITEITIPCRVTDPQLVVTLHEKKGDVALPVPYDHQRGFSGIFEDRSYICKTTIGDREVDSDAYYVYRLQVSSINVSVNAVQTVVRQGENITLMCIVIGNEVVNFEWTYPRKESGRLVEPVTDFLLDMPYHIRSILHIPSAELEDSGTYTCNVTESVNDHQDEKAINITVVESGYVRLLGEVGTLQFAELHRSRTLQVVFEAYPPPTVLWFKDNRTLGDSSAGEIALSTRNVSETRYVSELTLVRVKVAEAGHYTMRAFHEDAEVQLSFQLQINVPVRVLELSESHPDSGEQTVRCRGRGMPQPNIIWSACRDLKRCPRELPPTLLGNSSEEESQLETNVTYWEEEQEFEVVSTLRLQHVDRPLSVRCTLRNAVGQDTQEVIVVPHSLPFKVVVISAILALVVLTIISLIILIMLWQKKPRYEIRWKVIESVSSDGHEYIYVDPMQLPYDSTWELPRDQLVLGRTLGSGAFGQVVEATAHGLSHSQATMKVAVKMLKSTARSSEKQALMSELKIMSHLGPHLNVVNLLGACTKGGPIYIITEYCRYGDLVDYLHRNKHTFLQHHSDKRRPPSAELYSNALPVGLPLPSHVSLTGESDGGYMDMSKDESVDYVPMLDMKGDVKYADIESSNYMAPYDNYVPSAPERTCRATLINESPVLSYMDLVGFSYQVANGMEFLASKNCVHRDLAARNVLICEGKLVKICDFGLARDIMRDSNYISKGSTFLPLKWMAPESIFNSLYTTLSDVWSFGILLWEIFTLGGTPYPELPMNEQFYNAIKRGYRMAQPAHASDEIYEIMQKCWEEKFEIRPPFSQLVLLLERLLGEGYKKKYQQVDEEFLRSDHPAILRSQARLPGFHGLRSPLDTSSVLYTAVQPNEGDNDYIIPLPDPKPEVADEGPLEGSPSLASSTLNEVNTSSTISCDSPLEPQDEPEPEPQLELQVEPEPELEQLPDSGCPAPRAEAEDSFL

T1 sequence (P35918 784-1345 limits assumed): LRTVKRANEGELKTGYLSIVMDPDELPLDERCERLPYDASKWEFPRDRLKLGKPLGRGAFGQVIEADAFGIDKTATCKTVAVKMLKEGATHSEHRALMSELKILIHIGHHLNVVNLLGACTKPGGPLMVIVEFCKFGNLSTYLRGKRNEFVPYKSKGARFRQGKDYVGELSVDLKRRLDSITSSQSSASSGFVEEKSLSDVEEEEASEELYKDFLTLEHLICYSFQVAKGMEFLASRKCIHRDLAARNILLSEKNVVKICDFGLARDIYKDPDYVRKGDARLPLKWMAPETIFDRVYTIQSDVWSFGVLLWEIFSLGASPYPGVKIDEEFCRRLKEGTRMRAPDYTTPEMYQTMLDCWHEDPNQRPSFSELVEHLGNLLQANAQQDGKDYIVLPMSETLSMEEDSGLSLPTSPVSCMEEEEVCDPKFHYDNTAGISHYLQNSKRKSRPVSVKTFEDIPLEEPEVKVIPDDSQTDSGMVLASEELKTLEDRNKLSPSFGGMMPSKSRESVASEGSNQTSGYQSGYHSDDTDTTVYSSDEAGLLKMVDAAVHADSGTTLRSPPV

Compound | IC50 (GST-Flk1) | IC50 (HER-2 kinase) | IC50 (EGFR [1]) | IC50 (EGFR [2]) | IC50 (PDGFR-β)
CCN(CC)CCNC(=O)c1c(C)[nH]c(/C=C2\C(=O)Nc3ccc(-c4ccccc4)cc32)c1C [Example 56, 2,4-Dimethyl-5-(2-oxo-5-phenyl-1,2-dihydroindol-3-ylidenemethyl)-1H-pyrrole-3-carboxylic acid (2-diethylaminoethyl)amide] | 2.32 µM | 7.11 µM | 10 µM | > 100 µM | 3.19 µM
COc1ccccc1-c1ccc2c(c1)NC(=O)/C2=C\c1[nH]c(C)c(C(=O)NCCN2CCCC2)c1-c1ccccc1 [Example 43, 5-[6-(2-Methoxy-phenyl)-2-oxo-1,2-dihydroindol-3-ylidenemethyl]-2-methyl-4-phenyl-1H-pyrrole-3-carboxylic acid (2-pyrrolidin-1-yl-ethyl)amide] | 1.12 µM | 53.4 µM | 37.3 µM | – | 8.38 µM
CCN(CC)CCNC(=O)c1c(C)[nH]c(/C=C2\C(=O)Nc3cc(-c4ccccc4)ccc32)c1C [Example 59, 2,4-Dimethyl-5-(2-oxo-6-phenyl-1,2-dihydroindol-3-ylidenemethyl)-1H-pyrrole-3-carboxylic acid (2-diethylaminoethyl)amide] | – | > 100 µM | > 100 µM | > 100 µM | < 0.78 µM
CCN(CC)CCN(C)C(=O)c1ccc(/C=C2\C(=O)Nc3cc(-c4ccccc4)ccc32)[nH]1 [Example 11, 5-(2-Oxo-6-phenyl-1,2-dihydroindol-3-ylidenemethyl)-1H-pyrrole-2-carboxylic acid (2-diethylaminoethyl)methylamide] | 9.77 µM | > 100 µM | > 100 µM | > 100 µM | > 100 µM
COc1cccc(-c2ccc3c(c2)NC(=O)/C3=C\c2[nH]c(C)c(C(=O)NCCN(C)C)c2C)c1 [Example 55, 5-[6-(3-Methoxy-phenyl)-2-oxo-1,2-dihydroindol-3-ylidenemethyl]-2,4-dimethyl-1H-pyrrole-3-carboxylic acid (2-dimethylamino-ethyl)amide] | 0.27 µM | 77.8 µM | 36 µM | 6.03 µM | 0.53 µM
Cc1cc(C(=O)O)[nH]c1/C=C1\C(=O)N(C)c2ccccc21 [Example 2, 4-Methyl-5-(1-methyl-2-oxo-1,2-dihydroindol-3-ylidenemethyl)-1H-pyrrole-2-carboxylic acid] | > 100 µM | – | > 100 µM | > 100 µM | > 100 µM
Cc1[nH]c(/C=C2\C(=O)Nc3ccc(Br)cc32)c(-c2ccccc2)c1C(=O)NCCN(C)C [Example 44, 5-(5-Bromo-2-oxo-1,2-dihydroindol-3-ylidenemethyl)-2-methyl-4-phenyl-1H-pyrrole-3-carboxylic acid (2-dimethylamino-ethyl)amide] | < 0.05 µM | 6.99 µM | 67.5 µM | 20.7 µM | 0.02 µM
Cc1[nH]c(/C=C2\C(=O)Nc3cc(-c4ccccc4)ccc32)c(C)c1C(=O)NCCCn1ccnc1 [Example 61, 2,4-Dimethyl-5-(2-oxo-6-phenyl-1,2-dihydroindol-3-ylidenemethyl)-1H-pyrrole-3-carboxylic acid (3-imidazol-1-ylpropyl)amide] | – | > 100 µM | > 100 µM | > 100 µM | < 0.78 µM
CCN(CC)CCN(C)C(=O)c1ccc(/C=C2\C(=O)Nc3ccc(Br)cc32)[nH]1 [Example 10, 5-(5-Bromo-2-oxo-1,2-dihydroindol-3-ylidenemethyl)-1H-pyrrole-2-carboxylic acid (2-diethylaminoethyl)methylamide] | 5.72 µM | 8.06 µM | 15.9 µM | 94 µM | > 100 µM
CC(C)c1[nH]c(/C=C2\C(=O)Nc3ccc(Br)cc32)c(-c2ccccc2)c1C(=O)NCCCN1CCCC1 [Example 38, 5-(5-Bromo-2-oxo-1,2-dihydroindol-3-ylidenemethyl)-2-isopropyl-4-phenyl-1H-pyrrole-3-carboxylic acid (3-pyrrolidin-1-ylpropyl)amide] | 4.17 µM | 2.16 µM | 8.97 µM | 6.04 µM | 3.06 µM
Cc1[nH]c(/C=C2\C(=O)Nc3cc(-c4ccccc4)ccc32)c(C)c1C(=O)NCCN1CCCC1 [Example 60, 2,4-Dimethyl-5-(2-oxo-6-phenyl-1,2-dihydroindol-3-ylidenemethyl)-1H-pyrrole-3-carboxylic acid (2-pyrrolidin-1-yl-ethyl)amide] | – | > 100 µM | > 100 µM | > 100 µM | < 0.78 µM
Cc1[nH]c(/C=C2\C(=O)Nc3ccc(Br)cc32)c(-c2ccccc2)c1C(=O)NCCN1CCCC1 [Example 42, 5-(5-Bromo-2-oxo-1,2-dihydroindol-3-ylidenemethyl)-2-methyl-4-phenyl-1H-pyrrole-3-carboxylic acid (2-pyrrolidin-1-yl-ethyl)amide] | 0.1 µM | 20.4 µM | 74.6 µM | 12 µM | 0.12 µM
Cc1[nH]c(/C=C2\C(=O)Nc3ccc(Br)cc32)c(C)c1C(=O)NCCCn1ccnc1 [Example 53, 5-(5-Bromo-2-oxo-1,2-dihydroindol-3-ylidenemethyl)-2,4-dimethyl-1H-pyrrole-3-carboxylic acid (3-imidazol-1-ylpropyl)amide] | – | > 100 µM | > 100 µM | > 100 µM | < 0.78 µM
CCOC(=O)c1c(C)[nH]c(/C=C2\C(=O)Nc3ccc(Br)cc32)c1-c1ccccc1 [Example 46, 5-(5-Bromo-2-oxo-1,2-dihydroindol-3-ylidenemethyl)-2-methyl-4-phenyl-1H-pyrrole-3-carboxylic acid ethyl ester] | 30.6 µM | > 100 µM | > 100 µM | > 100 µM | 6.18 µM

The remaining lines, values ahead:

IC50 (GST-Flk1) | IC50 (HER-2 kinase) | IC50 (EGFR [1]) | IC50 (EGFR [2]) | IC50 (PDGFR-β) | Compound
0.55 µM | > 100 µM | > 100 µM | 30.5 µM | < 0.78 µM | Cc1[nH]c(/C=C2\C(=O)Nc3cc(-c4cccnc4)ccc32)c(C)c1C(=O)NCCN1CCCC1 [Example 64, 2,4-Dimethyl-5-(2-oxo-6-pyridin-3-yl-1,2-dihydroindol-3-ylidenemethyl)-1H-pyrrole-3-carboxylic acid (2-pyrrolidin-1-yl-ethyl)amide]
7.84 µM | 16 µM | 9.67 µM | 8.53 µM | 47.6 µM | CN(C)CCNC(=O)c1[nH]c(/C=C2\C(=O)Nc3ccc(Br)cc32)c2c1CCCC2 [Example 89, 3-(5-Bromo-2-oxo-1,2-dihydro-indol-3-ylidenemethyl)-4,5,6,7-tetrahydro-2H-isoindole-1-carboxylic acid (2-dimethylamino-ethyl)-amide]
6.06 µM | 9.65 µM | 39.9 µM | > 100 µM | 10.5 µM | CCN(CC)CCCNC(=O)c1c(C(C)C)[nH]c(/C=C2\C(=O)Nc3ccc(Br)cc32)c1C(C)C [Example 72, 5-(5-Bromo-2-oxo-1,2-dihydroindol-3-ylidenemethyl)-2,4-diisopropyl-1H-pyrrole-3-carboxylic acid (3-diethylaminopropyl)amide]
5.95 µM | 8.59 µM | 39.5 µM | > 100 µM | 14.1 µM | CC(C)c1[nH]c(/C=C2\C(=O)Nc3ccc(Br)cc32)c(C(C)C)c1C(=O)NCCCN1CCCC1 [Example 73, 5-(5-Bromo-2-oxo-1,2-dihydroindol-3-ylidenemethyl)-2,4-diisopropyl-1H-pyrrole-3-carboxylic acid (3-pyrrolidin-1-ylpropyl)amide]
0.37 µM | 16 µM | 74.4 µM | > 100 µM | < 0.05 µM | Cc1[nH]c(/C=C2\C(=O)Nc3cc(-c4cccnc4)ccc32)c(C)c1C(=O)NCCCN(C)C [Example 65, 2,4-Dimethyl-5-(2-oxo-6-pyridin-3-yl-1,2-dihydroindol-3-ylidenemethyl)-1H-pyrrole-3-carboxylic acid (3-dimethylamino-propyl)amide]
0.3 µM | – | 97.5 µM | – | 56.5 µM | CCN(CC)CCCNC(=O)c1c(C)[nH]c(/C=C2\C(=O)Nc3cccc(C(=O)Nc4ccc(OC)c(Cl)c4)c32)c1C [Example 69, 3-[4-(3-Diethylamino-propylcarbamoyl)-3,5-dimethyl-1H-pyrrol-2-ylmethylene]-2-oxo-2,3-dihydro-1H-indole-4-carboxylic acid (3-chloro-4-methoxy-phenyl)amide]
1.16 µM | 34.1 µM | 23.5 µM | – | 0.03 µM | CCN(CC)CCCNC(=O)c1c(C)[nH]c(/C=C2\C(=O)Nc3cc(-c4ccccc4)ccc32)c1C [Example 68, 2,4-Dimethyl-5-(2-oxo-6-phenyl-1,2-dihydroindol-3-ylidenemethyl)-1H-pyrrole-3-carboxylic acid (3-diethylaminopropyl)amide]
